Assay results: US20250346579A1, “PYRIDAZINONE COMPOUND AND PREPARATION METHOD THEREFOR, PHARMACEUTICAL COMPOSITION THEREOF, AND APPLICATION THEREOF” (CHINA PHARMACEUTICAL UNIVERSITY, priority 2021, published 2025)

What was measured:
[1] = in words, background; cited from earlier work
[2] = Pharmacokinetic study in SD rats; format: in vivo
Procedure: (§1) Experimental process: 12 male SD rats were selected, 6 of the rats were orally administrated (3 of them were administered with RBN-2397, and the remaining 3 were administered with I-A-1, at a dose of 10 mg/kg), 6 of the rats were administered intravenously (3 of them were administered with RBN-2397, and the remaining 3 were administered with I-A-1, at a dose of 1 mg/kg), blood samples were collected at 0 min, 2 min, 5 min, 10 min, 20 min, 30 min, 60 min, 2 h, 4 h, 6 h, and 8 h, respectively, and then centrifuged (at 3000 rpm for 5 min), a supernatant was collected and analyzed by LC-MS-MS, and results were analyzed by using WinNonlin Software.

NCI-H1373 cells = settings: NCI-H1373 xenograft; dose of >30 mg/kg orally once a day; cited from earlier work
[3] = Pharmacokinetic study in ICR mice; format: in vivo
Procedure: as §1, with “ICR mice” for “SD rats”

[4] = male, rat, supernatant of centrifuged blood, IV 1 mg/kg
[5] = male, rat, supernatant of centrifuged blood, PO 10 mg/kg
[6] = male, mouse, supernatant of centrifuged blood, IV 1 mg/kg
[7] = male, mouse, supernatant of centrifuged blood, PO 10 mg/kg

CL ([2]; PO 10 mg/kg): 381.342 mL/min/kg | F ([2]; PO 10 mg/kg): 12.4% | AUC [2, 4]: 333 ng·h/mL | Cmax [2, 4]: 836 ng/mL | clearance [2, 4]: 50.6 mL/min/kg | half-life [2, 4]: 16.8 min | AUC [2, 5]: 415 ng·h/mL | Cmax [2, 5]: 295 ng/mL | half-life [2, 5]: 45 min | F ([3]; PO 10 mg/kg): 25.67% | AUC [3, 6]: 256 ng·h/mL | Cmax [3, 6]: 757 ng/mL | clearance [3, 6]: 67 mL/min/kg | half-life [3, 6]: 9 min | AUC [3, 7]: 656 ng·h/mL | Cmax [3, 7]: 1310 ng/mL | half-life [3, 7]: 54 min
SMILES: C[C@@H](COCCC(=O)N1CCN(c2ncc(C(F)(F)F)cn2)CC1)Nc1cn[nH]c(=O)c1C(F)(F)F [RBN-2397, reference compound]
drug exposure and oral bioavailability in vivo [1]: low | in vivo clearance rate [1]: high | anti-tumor effects (NCI-H1373 cells): significant anti-tumor effects
